Measured values published in patent EP1497263B1, “ACYL-3-CARBOXYPHENYLUREA DERIVATIVES, METHOD FOR PRODUCTION AND USE THEREOF” (Sanofi-Aventis Deutschland GmbH, priority 2002, dated 2003).

Test system: Humane Glykogenphosphorylase a
Test: Glycogen phosphorylase a activity test (reverse direction, release of inorganic phosphate)
Type: biochemical, human
Conditions: 10 µM test substance; 40 min at room temperature; duplicate determinations
Excerpt: Glykogenphosphorylase a Aktivitätstest
Der Effekt von Verbindungen auf die Aktivität der aktiven Form der Glykogenphosphorylase (GPa) wurde in der umgekehrten Richtung, durch Verfolgen der Glykogensynthese aus Glukose-1-Phosphat an Hand der Bestimmung der Freisetzung von anorganischem Phosphat, gemessen. Alle Reaktionen wurden als Doppelbestimmungen in Mikrotiterplatten mit 96-Vertiefungen (Half Area Plates, Costar Nr. 3696) durchgeführt, wobei die Änderung der Absorption auf Grund der Bildung des Reaktionsprodukts bei der weiter unten spezifizierten Wellenlänge in einem Multiskan Ascent Elisa Reader (Lab Systems, Finnland) gemessen wurde. Um die GPa Enzymaktivität in der umgekehrten Richtung zu messen, wurde die Umwandlung von Glukose-1-Phosphat in Glykogen und anorganisches Phosphat nach der allgemeinen Methode von Engers et al. (Engers HD, Shechosky S, Madsen NB, Can J Biochem 1970 Jul;48(7):746-754) mit folgenden Modifikationen gemessen: Humane Glykogenphosphorylase a (zum Beispiel mit 0,76 mg Protein / ml (Aventis Pharma Deutschland GmbH), gelöst in Pufferlösung E (25 mM β-Glyzerophosphat, pH 7,0, 1 mM EDTA und 1 mM Dithiotreitol) wurde mit Puffer T (50 mM Hepes, pH 7,0, 100 mM KCI, 2,5 mM. EDTA, 2,5 mM MgCl2·6H2O) und Zusatz von 5 mg/ml Glykogen auf eine Konzentration von 10 µg Protein/ml verdünnt. […]

In the case of `CCOC(=O)c1ccc(NC(=O)NC(=O)c2c(F)cccc2F)cc1` [Vergleichsbeispiel A], the “% Inhibition bei 10 µM” value is reported as 3%.

`Cc1ccccc1C(=O)NC(=O)Nc1cc(C(=O)O)ccc1Cl` [compound 5] was tested, and the “% Inhibition bei 10 µM” value was 46%.
